Assay in all cases: Antimicrobial susceptibility profile, CAMHB micro-dilution (CLSI)
Assay type in all cases: cell-based, avian pathogenic Escherichia coli (APEC)
For orientation: Dilution methods test growth across graded concentrations, often in twofold steps.

In one experiment the test system is APEC O109. As to conditions: (R) = resistant.
The test system of the next experiment is APEC O78. As to conditions: (R) = resistant.
The next experiment has as its system APEC O115. As to conditions: (R) = resistant.
The test system of the next experiment is APEC O35. As to conditions: (R) = resistant.
The next experiment relates to APEC O15. As to conditions: (R) = resistant.
A further experiment relates to APEC O78-53. To be noted: APEC O78-53, CAMHB micro-dilution; (R) = resistant.
The next experiment relates to APEC O2-211. As to conditions: APEC O2-211, CAMHB micro-dilution; (R) = resistant.
The test system of a further experiment is APEC O18. To be noted: (R) = resistant.
For the next experiment, the system named is APEC O2. As to conditions: (R) = resistant.
In a further experiment the test system is APEC O1. As to conditions: (R) = resistant.
The subject of another experiment is APEC O1-63. As to conditions: APEC O1-63, CAMHB micro-dilution; (R) = resistant.
The next experiment concerns APEC O8. As to conditions: (R) = resistant.

These results are taken from patent US20230355597A1, “COMPOUNDS, COMPOSITIONS, AND METHODS FOR THE TREATMENT AND PREVENTION OF AVIAN PATHOGENIC E. COLI (APEC)” (OHIO STATE INNOVATION FOUNDATION, priority 2018, published 2023).

≈ marks a conversion by molar mass, not a printed value. Some results are limits rather than exact numbers.

As for `CC1(C)S[C@@H]2[C@H](NC(=O)[C@H](N)c3ccccc3)C(=O)N2[C@H]1C(=O)O` [Ampicillin], the MIC with APEC O109 was >64 (R) µg/mL; against APEC O78, >64 (R) µg/mL; in the experiment with APEC O115 it was >64 (R) µg/mL; in the experiment on APEC O35, 2 µg/mL (≈ 5.72 µM); against APEC O15, 2 µg/mL (≈ 5.72 µM); with APEC O78-53 it was 4 µg/mL (≈ 11.4 µM). For the same compound, the MIC against APEC O2-211 was 4 µg/mL (≈ 11.4 µM); against APEC O18, 4 µg/mL (≈ 11.4 µM); in the experiment with APEC O2, >64 (R) µg/mL; in the experiment on APEC O1, >64 (R) µg/mL; against APEC O1-63 it was 4 µg/mL (≈ 11.4 µM); with APEC O8 it was 4 µg/mL (≈ 11.4 µM).

In the case of `CN(C)[C@@H]1C(=O)C(C(N)=O)=C(O)[C@@]2(O)C(=O)C3=C(O)c4c(O)cccc4[C@@](C)(O)[C@H]3C[C@@H]12` [Tetracycline], the MIC against APEC O109 is 1 µg/mL (≈ 2.25 µM); against APEC O78 it was 32 (R) µg/mL; in the experiment with APEC O115, >64 (R) µg/mL; in the experiment with APEC O35 it was 1 µg/mL (≈ 2.25 µM); with APEC O15, >64 (R) µg/mL; against APEC O78-53, >64 (R) µg/mL. The MIC with APEC O2-211 was >64 (R) µg/mL; against APEC O18 it was 2 µg/mL (≈ 4.5 µM); with APEC O2 it was >64 (R) µg/mL; against APEC O1 it was >64 (R) µg/mL; with APEC O1-63, 16 (R) µg/mL; against APEC O8 it was >64 (R) µg/mL.

Take Colistin: the MIC was 0.5 µg/mL in the experiment with APEC O109; 0.25 µg/mL against APEC O78; 1 µg/mL in the experiment on APEC O115; 1 µg/mL in the experiment on APEC O35; 1 µg/mL against APEC O15; 0.5 µg/mL in the experiment with APEC O78-53. For the same compound, the MIC in the experiment with APEC O2-211 is listed as 4 (R) µg/mL; in the experiment on APEC O18 it was 1 µg/mL; against APEC O2, 0.5 µg/mL; in the experiment on APEC O1, 0.5 µg/mL; in the experiment on APEC O1-63, 4 (R) µg/mL; with APEC O8 it was 1 µg/mL.
